The test system of the experiment is Saccharomyces cerevisiae lifespan extension, no nicotinamide. In words: yeast lifespan extension without nicotinamide, confirmation, yeast lifespan extension project, S. cerevisiae (AID 812).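 Further: growth read as optical density after 42 hours of incubation at 30C.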

Molecules are shown by their SMILES. The source made the active and inactive calls. How the calls were made is not given here.

For the molecule `COc1cc(Br)cc(-c2nc3c(c(=O)[nH]c(=O)n3Cc3ccccc3)n2C)c1O`, the EC50 (in general, the concentration needed to bring the measured effect to its halfway point) is > 40 µM (inactive). `COc1ccc(CNC(=O)C2CCN(c3nc(OC)nc(OC)n3)CC2)cc1`: the EC50 was > 40 µM (inactive).

`CN1C(=O)/C(=C/c2cccn2-c2ccc3ccccc3c2)C(=O)NC1=S`: the EC50 is > 40 µM (inactive). With `CC(C)n1c(-c2ccccc2F)n[nH]c1=S`, the EC50 was > 40 µM (inactive). With `COc1ccc(CN2C(=O)/C(=C/c3ccncc3)SC2=S)cc1`, the EC50 is > 40 µM (inactive). As for `Oc1ccc2ccccc2c1C=Nc1ccccc1-c1nc2ccccc2[nH]1`, the EC50 is > 40 µM (inactive). Turning to `COc1ccc(N(C)C(=S)Nc2ccc3nc(C)c(C)nc3c2)cc1`, the EC50 is > 40 µM (inactive). As to `Cc1cc(C2C(C#N)=C(N)Oc3n[nH]c(C)c32)c(C)s1` (centres undefined), the EC50 was > 40 µM (inactive). As to `C/C(=N\NC(=O)c1cccc(Cl)c1)C1C(=O)c2ccccc2C1=O`, the EC50 is > 40 µM (inactive). In the case of `CCCCn1c(=O)c(C(=O)Nc2cnccn2)c(O)c2ccccc21`, the EC50 was > 40 µM (inactive).

Take `CCN1C(=O)C(=Cc2ccc(C)s2)C(=O)N(CC)C1=S`: the EC50 is > 40 µM (inactive). `CN(c1ccccc1)c1nc2ccsc2c(=O)s1`: the EC50 was > 40 µM (inactive). For `CCOC(=O)C(=Cc1ccc(F)cc1)C(=O)OCC`, the EC50 was > 40 µM (inactive). To `O=C1Nc2cc(Cl)c(Cl)cc2N(O)N1c1cc(Cl)cc(Cl)c1` belongs > 40 µM (inactive). As for `Cc1cc(C)c(NC(=O)/C(=C/c2ccccc2)c2ccccc2)c(C)c1`, the EC50 is > 40 µM (inactive). Next, `O=C(/C(=C/O)N=Nc1ccc(Cl)cc1)c1ccncc1`: > 40 µM (inactive); `Cc1ccnc(-n2c(C)cc(/C=C3\C(=O)NC(=S)N(C)C3=O)c2C)c1`: > 40 µM (inactive). Regarding `CCOc1ccc(C(=O)C(CN2CCOCC2)c2ccccc2)cc1` (centres undefined), the EC50 was > 40 µM (inactive). Turning to `Cc1oc2c(c(=O)c1C)C(=O)CC(c1ccccc1)C2` (centres undefined), the EC50 was > 40 µM (inactive). With `COc1ccccc1N(CN1CCCC1=O)C(=O)c1c(F)cccc1F`, the EC50 was > 40 µM (inactive). Consider `Cc1ccc(/C=C2/C(=O)NC(=O)N(CCc3ccc(F)cc3)C2=O)o1`, for which the EC50 was > 40 µM (inactive).

Turning to `Cc1cccc(NC(=O)c2c(O)c3cccc4c3n(c2=O)CCC4)n1`, the EC50 was > 40 µM (inactive). Regarding `Cc1ccc(C(=O)C2C(=O)c3ccccc3C2=O)cc1`, the EC50 is > 40 µM (inactive). For `O=C(Oc1ccc2c(c1)OCO2)C12CC3CC(CC(C3)C1)C2`, the EC50 was > 40 µM (inactive). To `Cc1ccc(NC(=O)Nc2nc(-c3ccc(C)s3)cs2)cc1` belongs > 40 µM (inactive). `CCOC(=O)CN1C(=O)N[C@H](c2ccc(Br)cc2)C(C(C)=O)=C1C`: the EC50 was > 40 µM (inactive). As for `COc1ccccc1CNC(=O)C(CCSC)NS(=O)(=O)c1ccc2c(c1)oc(=O)n2C` (centres undefined), the EC50 is > 40 µM (inactive). With `CN1CCN(CC(=O)Nc2ccc(Cl)cc2Cl)CC1`, the EC50 is > 40 µM (inactive). Regarding `CCN(CC)Cc1c(O)c(Cl)cc2c(C)c(C)c(=O)oc12`, the EC50 is > 40 µM (inactive). Regarding `CCC(=NCCc1c(C)[nH]c2ccc(C)cc12)C1=C(O)CC(c2ccccc2)CC1=O` (centres undefined), the EC50 was > 40 µM (inactive). To `O=c1c2ccccc2sn1-c1ccccc1` belongs > 40 µM (inactive); to `O=S1(=O)C=C(Sc2nc3ccccc3s2)c2ccccc21`, > 40 µM (inactive); to `N=c1c2c(-c3ccccc3)c(-c3ccccc3)n(Cc3ccco3)c2ncn1CCCn1ccnc1`, > 40 µM (inactive). Consider `C=C(C(=O)c1ccccc1)C(C)CC(=O)c1ccccc1` (centres undefined), for which the EC50 is > 40 µM (inactive).

Consider `CN(C)/C=C(/C(=O)c1ccc(Cl)cc1Cl)S(=O)(=O)c1ccccc1`, for which the EC50 is > 40 µM (inactive).

For `O=C1c2ccccc2NC(c2cnc3ccccc3n2)N1O` (centres undefined), the EC50 was > 40 µM (inactive). Take `CCCN1C(=O)/C(=C/c2ccncc2)SC1=S`: the EC50 was > 40 µM (inactive). In the case of `CNC(=O)/C(C#N)=C/c1c(F)cccc1Cl`, the EC50 was > 40 µM (inactive). `O=C(c1c[nH]c(C(=O)C(Cl)(Cl)Cl)c1)c1ccccc1Cl`: the EC50 is 7.18 µM. For `CCOC(=O)C1=C(N)OC2=C(C(=O)CCC2)C1c1sccc1C` (centres undefined), the EC50 is > 40 µM (inactive). To `COC(=O)/C(=C/c1cn(C)c2ccccc12)[N+](=O)[O-]` belongs > 40 µM (inactive). For `CCOC(=O)C1=C(C)Nc2nc(=S)[nH]n2C1c1ccc(Cl)cc1` (centres undefined), the EC50 was > 40 µM (inactive).

In the case of `O=c1c2ccccc2nc(-c2ccc(Cl)c(Cl)c2)n1O`, the EC50 is > 40 µM (inactive). Consider `CC1CCCN(c2nc3ccccc3nc2C(C#N)C(=O)OC2CCCCC2)C1` (centres undefined), for which the EC50 was > 40 µM (inactive). Next, `CCCCC(=Nc1ccc(N)cc1)C1=C(O)C(C(=O)OC)C(C)(C)CC1=O` (centres undefined): > 40 µM (inactive); `Cc1nc(SC(C)C)[nH]c(=O)c1Cc1ccccc1`: > 40 µM (inactive); `Cc1cc(C=C2C(=O)N(C)C(=S)N(C)C2=O)c(C)n1-c1cccnc1`: > 40 µM (inactive). As for `O=[N+]([O-])c1cc2oc3c(c2c(C=NCc2ccncc2)c1O)CCCC3`, the EC50 is > 40 µM (inactive). For `COc1cc(C(C[N+](=O)[O-])c2c(-c3ccccc3)cc3ccccn23)cc(OC)c1OC` (centres undefined), the EC50 is > 40 µM (inactive).

`O=C(O)c1cccc2c1C(=O)N(C1CCCCC1)C2`: the EC50 was > 40 µM (inactive). For `Cc1ccc(C(=O)OC2=CC(=O)CC(C)(C)C2)cc1`, the EC50 is > 40 µM (inactive).

For `Cc1ccc(NC(=O)CN2CCN(CCN=CC3=C(O)CC(c4ccccc4)CC3=O)CC2)cc1` (centres undefined), the EC50 is > 40 µM (inactive). For the molecule `CCn1c(/N=C/c2ccccc2NS(=O)(=O)c2ccc(C)cc2)nc2ccccc21`, the EC50 was > 40 µM (inactive). Next, `CCOC(=O)c1cnc(-c2ccccc2)nc1Oc1ccc(Cl)cc1`: > 40 µM (inactive); `CC1=CN2C(=N)/C(=C/c3ccc([N+](=O)[O-])o3)C(=O)N=C2S1`: > 40 µM (inactive). Next, `Cc1ccc(C(C2=C(O)CC(C)(C)CC2=O)C2C(=O)CC(C)(C)CC2=O)o1` (centres undefined): > 40 µM (inactive); `CS(=O)(=O)c1nc(-c2cccs2)cc(C(F)(F)F)n1`: > 40 µM (inactive). With `Cc1cc(C)nc(SCc2cc(=O)c(OC(=O)c3ccc(Br)o3)co2)n1`, the EC50 is > 40 µM (inactive). Next, `O=C1c2ccccc2C(=O)N1Cc1nc2ccccc2c(=O)n1-c1ccc(Br)cn1`: > 40 µM (inactive); `O=C(O)c1c[nH]c(=S)n1-c1ccc(F)cc1`: > 40 µM (inactive). Turning to `O=C(NC(=S)NNC(=O)c1ccccc1O)c1ccco1`, the EC50 is > 40 µM (inactive). Consider `CCOC(=O)C1Cc2cc3c(cc2C1=O)CC(C(=O)OCC)C3=O` (centres undefined), for which the EC50 was > 40 µM (inactive). As to `CCOc1ccc(C2=NNC(c3cccs3)=Nc3ccc(OCC)cc32)cc1`, the EC50 is > 40 µM (inactive). For `CCn1c(=O)c2ccccc2n2c(SCC(=O)N3CCCc4ccccc43)nnc12`, the EC50 was > 40 µM (inactive).

The values are drawn from PubChem BioAssay AID812 (SRMLSC, 2007).
